Experimental data reported in ChEMBL document CHEMBL1135778, “Synthesis and molecular modeling of new 1-aryl-3-[4-arylpiperazin-1-yl]-1-propane derivatives with high affinity at the serotonin transporter and at 5-HT(1A) receptors” (J Med Chem, 2002).
pIC50, pKi: −log10 of the molar value.

Columns and labels:
[1] = molecular target: Sodium-dependent serotonin transporter (Rattus norvegicus, UniProt P31652); assay: Binding affinity towards Serotonin transporter (5-HTT) in rat frontal cortex homogenates; format: tissue-based
[2] = molecular target: T1, 5-hydroxytryptamine receptor 1A (Rattus norvegicus, UniProt P19327); assay: Binding affinity towards 5-hydroxytryptamine 1A receptor in rat frontal cortex homogenates; format: tissue-based
T1 sequence (P19327 whole entry): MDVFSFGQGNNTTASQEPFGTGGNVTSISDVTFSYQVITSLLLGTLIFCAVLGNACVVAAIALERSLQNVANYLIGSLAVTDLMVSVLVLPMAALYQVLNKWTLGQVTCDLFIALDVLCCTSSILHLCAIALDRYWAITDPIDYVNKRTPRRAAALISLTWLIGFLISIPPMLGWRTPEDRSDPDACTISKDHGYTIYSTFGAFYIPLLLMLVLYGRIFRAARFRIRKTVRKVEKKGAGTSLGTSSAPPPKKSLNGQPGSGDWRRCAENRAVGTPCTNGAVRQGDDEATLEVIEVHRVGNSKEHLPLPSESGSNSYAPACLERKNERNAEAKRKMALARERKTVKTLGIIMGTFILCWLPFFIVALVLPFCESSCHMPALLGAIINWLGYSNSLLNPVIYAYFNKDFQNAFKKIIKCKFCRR

[3] = molecular target: T2, 5-hydroxytryptamine receptor 1A (Rattus norvegicus) (UniProt P19327); assay: Percent inhibition of (+)-8-OH-DPAT stimulated [35S]GTP-gamma-S, binding to 5-hydroxytryptamine 1A receptor in hippocampal membranes; format: functional, cell membranes; parameters: concentration or dose not given beside the values; conditions: concentration not given here
T2 sequence (whole entry): T1 sequence (P19327 whole entry)

[4] = molecular target: T3, 5-hydroxytryptamine receptor 1A (Mus musculus) (UniProt Q64264); assay: Antagonist activity at 5-hydroxytryptamine 1A receptor against (+)-8-OH-DPAT induced hypothermia in mice at 1 mg/kg after 60 min; format: functional, organism-based; parameters: dose 1 mg/kg
T3 sequence (whole entry): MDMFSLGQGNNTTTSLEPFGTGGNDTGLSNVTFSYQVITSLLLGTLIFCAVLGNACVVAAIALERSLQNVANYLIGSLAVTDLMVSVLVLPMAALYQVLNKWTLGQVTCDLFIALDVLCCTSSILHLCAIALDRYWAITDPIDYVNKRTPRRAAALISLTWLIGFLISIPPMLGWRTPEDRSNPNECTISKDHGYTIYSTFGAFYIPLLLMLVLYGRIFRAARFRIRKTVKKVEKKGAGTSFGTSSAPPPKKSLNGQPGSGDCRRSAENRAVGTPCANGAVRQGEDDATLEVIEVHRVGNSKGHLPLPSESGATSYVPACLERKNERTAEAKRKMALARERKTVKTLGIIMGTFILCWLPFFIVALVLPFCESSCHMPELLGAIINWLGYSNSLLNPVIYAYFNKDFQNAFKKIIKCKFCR

[5] = molecular target: T2, 5-hydroxytryptamine receptor 1A (Rattus norvegicus); assay: Percent increase of R(+)-8-OH-DPAT stimulated [35S]GTP-gamma-S, binding to 5-hydroxytryptamine 1A receptor in isolated rat hippocampal membranes; format: functional, cell membranes; conditions: Membrane
[6] = molecular target: T2, 5-hydroxytryptamine receptor 1A (Rattus norvegicus); assay: Antagonist activity to stimulate binding of [35S]-GTP-gamma S binding to 5-hydroxytryptamine 1A receptor in isolated rat hippocampal membranes; format: functional, cell membranes; conditions: Membrane, scale: (fM of GTP-gammaS bound)
[7] = molecular target: T3, 5-hydroxytryptamine receptor 1A (Mus musculus); assay: Antagonist activity at 5-hydroxytryptamine 1A receptor against (+)-8-OH-DPAT induced hypothermia in mice at 1 mg/kg after 30 min; format: functional, organism-based; parameters: dose 1 mg/kg
[8] = molecular target: T3, 5-hydroxytryptamine receptor 1A (Mus musculus); assay: Antagonist activity at 5-hydroxytryptamine 1A receptor against (+)-8-OH-DPAT induced hypothermia in mice at 10 mg/kg after 15 min; format: functional, organism-based; parameters: dose 10 mg/kg
[9] = molecular target: T3, 5-hydroxytryptamine receptor 1A (Mus musculus); assay: Antagonist activity at 5-hydroxytryptamine 1A receptor against (+)-8-OH-DPAT induced hypothermia in mice at 1 mg/kg after 15 min; format: functional, organism-based; parameters: dose 1 mg/kg
[10] = molecular target: T3, 5-hydroxytryptamine receptor 1A (Mus musculus); assay: Antagonist activity at 5-hydroxytryptamine 1A receptor against (+)-8-OH-DPAT induced hypothermia in mice at 10 mg/kg after 60 min; format: functional, organism-based; parameters: dose 10 mg/kg
[11] = molecular target: T3, 5-hydroxytryptamine receptor 1A (Mus musculus); assay: Antagonist activity at 5-hydroxytryptamine 1A receptor against (+)-8-OH-DPAT induced hypothermia in mice at 10 mg/kg after 30 min; format: functional, organism-based; parameters: dose 10 mg/kg
[12] = molecular target: T2, 5-hydroxytryptamine receptor 1A (Rattus norvegicus); assay: Inhibition of (+)-8-OH-DPAT stimulated [35S]GTP-gamma-S, binding in rat hippocampal membranes; format: functional, cell membranes; conditions: Hippocampus, Membrane, scale: (fM of GTP-gammaS bound)
[13] = molecular target: T2, 5-hydroxytryptamine receptor 1A (Rattus norvegicus); assay: Antagonist activity to stimulate binding of [35S]GTP-gamma-S, to 5-hydroxytryptamine 1A receptor in isolated rat hippocampal membranes; format: functional, cell membranes; conditions: Membrane, scale: (fM of GTP-gammaS bound)
[14] = molecular target: T1, 5-hydroxytryptamine receptor 1A; assay: Inhibition of (+)-8-OH-DPAT stimulated [35S]GTP-gamma-S, binding to 5-hydroxytryptamine 1A receptor in hippocampal membranes; format: functional, cell membranes

Chain of Sodium-dependent serotonin transporter (P31652 whole entry): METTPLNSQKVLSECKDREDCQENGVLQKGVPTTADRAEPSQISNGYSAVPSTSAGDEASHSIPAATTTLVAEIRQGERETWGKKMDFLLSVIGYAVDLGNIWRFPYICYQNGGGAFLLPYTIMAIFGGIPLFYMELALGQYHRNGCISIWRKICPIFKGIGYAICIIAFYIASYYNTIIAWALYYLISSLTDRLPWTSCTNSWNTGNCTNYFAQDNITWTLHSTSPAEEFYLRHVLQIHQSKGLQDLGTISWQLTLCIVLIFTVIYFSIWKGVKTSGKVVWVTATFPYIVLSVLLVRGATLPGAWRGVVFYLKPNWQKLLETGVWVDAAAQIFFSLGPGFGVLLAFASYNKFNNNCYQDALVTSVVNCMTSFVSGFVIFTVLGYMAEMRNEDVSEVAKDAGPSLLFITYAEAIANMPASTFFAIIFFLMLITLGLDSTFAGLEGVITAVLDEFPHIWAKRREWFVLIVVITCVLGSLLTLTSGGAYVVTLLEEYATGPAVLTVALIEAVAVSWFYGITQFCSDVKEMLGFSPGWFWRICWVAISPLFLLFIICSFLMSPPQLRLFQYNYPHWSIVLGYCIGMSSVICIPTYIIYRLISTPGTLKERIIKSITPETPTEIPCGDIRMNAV

SMILES: OC(CCN1CCN(c2cccc3ncccc23)CC1)c1csc2ccccc12 (stereo not given)
- pKi [1]: 7.49
- pKi ([2]; read-out: Ki): 7.43

SMILES: OC(CCN1CCN(c2cccc3c2OCCO3)CC1)c1csc2ccccc12 (stereo not given)
- inhibition [3]: 90%
- Change in body temperature [4]: -1.94 °C
- Increase [5]: 3.4%
- Max [6]: 16.1
- Change in body temperature [7]: -2.47 °C
- Change in body temperature [8]: -1.38 °C
- Change in body temperature [9]: -2.9 °C
- Change in body temperature [10]: -0.5 °C
- Change in body temperature [11]: -1.03 °C
- Basal [12]: 18.5
- Max [12]: 19.1
- pKi [1]: 7.30
- pKi ([2]; read-out: Ki): 8.24
- Basal [13]: 15.6
- pIC50 [14]: 7.25

SMILES: OC(CCN1CCN(c2cccc3cccnc23)CC1)c1csc2ccccc12 (stereo not given)
- inhibition [3]: 69%
- Change in body temperature [4]: -1.09 °C
- Increase [5]: 31%
- Max [6]: 15.6
- Change in body temperature [7]: -1.86 °C
- Change in body temperature [8]: -0.8 °C
- Change in body temperature [9]: -2.38 °C
- Change in body temperature [10]: -0.2 °C
- Change in body temperature [11]: -0.52 °C
- Basal [12]: 16.4
- Max [12]: 19.7
- pKi [1]: 7.62
- pKi ([2]; read-out: Ki): 8.20
- Basal [13]: 11.9
- pIC50 [14]: 7.74

SMILES: OC(CCN1CCN(c2cccc3[nH]ccc23)CC1)c1csc2ccccc12 (stereo not given)
- inhibition [3]: 90%
- Change in body temperature [4]: -1.13 °C
- Increase [5]: 26.3%
- Max [6]: 16.9
- Change in body temperature [7]: -1.59 °C
- Change in body temperature [8]: -1.03 °C
- Change in body temperature [9]: -2.08 °C
- Change in body temperature [10]: -0.8 °C
- Change in body temperature [11]: 0.84 °C
- Basal [12]: 12.8
- Max [12]: 13.9
- Basal [13]: 13.4
- pIC50 [14]: 7.51

SMILES: OC(CCN1CCN(c2cccc3c2OCCO3)CC1)c1csc2ccc(F)cc12 (stereo not given)
- inhibition [3]: 101%
- Change in body temperature [4]: -1.04 °C
- Increase [5]: 17.9%
- Max [6]: 14
- Change in body temperature [7]: -1.04 °C
- Change in body temperature [8]: -1.33 °C
- Change in body temperature [9]: -1.49 °C
- Change in body temperature [10]: -0.84 °C
- Change in body temperature [11]: -0.72 °C
- Basal [12]: 19.1
- Max [12]: 18.9
- pKi [1]: 7.80
- Basal [13]: 11.9
- pIC50 [14]: 7.51

SMILES: OC(CCN1CCN(c2cccc3ccccc23)CC1)c1csc2ccccc12 (stereo not given)
- pKi [1]: 7.09
- pKi ([2]; read-out: Ki): 7.18

SMILES: OC(CCN1CCN(c2cccc3c2OCCCO3)CC1)c1csc2ccccc12 (stereo not given)
- pKi [1]: 7.11
- pKi [2]: 8.72

SMILES: OC(CCN1CCN(c2cccc3c2OCO3)CC1)c1csc2ccc(F)cc12 (stereo not given)
- pKi [1]: 7.24
- pKi ([2]; read-out: Ki): 8.03

SMILES: OC(CCN1CCN(c2ccc3sccc3c2)CC1)c1csc2ccccc12 (stereo not given)
- pKi [1]: 8.49
- pKi ([2]; read-out: Ki): 6.04

SMILES: OC(CCN1CCN(c2cccc3c2OCCCO3)CC1)c1csc2ccc(F)cc12 (stereo not given)
- inhibition [3]: 84%
- Increase [5]: 22.8%
- Max [6]: 17.7
- Basal [12]: 18.7
- Max [12]: 20.4
- pKi [1]: 7.67
- pKi ([2]; read-out: Ki): 8.52
- Basal [13]: 14.4
- pIC50 [14]: 6.44

SMILES: OC(CCN1CCN(c2cnc3ccccc3c2)CC1)c1csc2ccccc12 (stereo not given)
- pKi [1]: 8.38
- pKi ([2]; read-out: Ki): 6.00

SMILES: OC(CCN1CCN(c2cccc3ccccc23)CC1)c1csc2ccc(F)cc12 (stereo not given)
- pKi [1]: 8.22

SMILES: OC(CCN1CCN(c2cccc3cccnc23)CC1)c1csc2ccc(F)cc12 (stereo not given)
- Increase [5]: 71.4%
- Max [6]: 23.9
- Basal [13]: 13.9

SMILES: CCCN(CCC)C1CCc2cccc(O)c2C1 (stereo not given)
- Increase [5]: 91.8%
- Max [6]: 25.9
- Basal [12]: 13
- Max [12]: 23.8
- Basal [13]: 13.5

SMILES: OC(CCN1CCN(c2cccc3[nH]ccc23)CC1)c1csc2ccc(F)cc12 (stereo not given)
- inhibition [3]: 110%
- Change in body temperature [4]: -2.72 °C
- Increase [5]: 35.5%
- Max [6]: 13.7
- Change in body temperature [7]: -3.61 °C
- Change in body temperature [8]: -0.95 °C
- Change in body temperature [9]: -3.28 °C
- Change in body temperature [10]: -0.95 °C
- Change in body temperature [11]: -0.89 °C
- Basal [12]: 11.2
- Max [12]: 10.1
- Basal [13]: 10.1
- pIC50 [14]: 7.79
